Measurements published in the NIST ThermoML archive (doi:10.1016/j.jct.2006.05.008).

Assay: molar heat capacity at constant pressure; wn = mass fraction of the nth substance listed
Settings: Small (less than 1 g) adiabatic calorimetry

CCCCn1cc[n+](C)c1.[Br-] [1-butyl-3-methylimidazolium bromide] + O
Crystal
Settings	molar heat capacity at constant pressure [J/K/mol]
218.45 K, w2 = 0.00482	179.81
218.58 K, w2 = 0.0495	158.93
218.67 K, w2 = 0.00482	179.82
219.16 K, w2 = 0.0051	180.49
219.16 K, w2 = 0.0169	170.74
219.92 K, w2 = 0.0169	174.79
220.75 K, w2 = 0.00482	181.03
221.08 K, w2 = 0.00482	181.37
221.13 K, w2 = 0.0495	162.83
221.26 K, w2 = 0.0169	172.67
221.69 K, w2 = 0.0051	182.19
221.98 K, w2 = 0.0169	175.21
222.83 K, w2 = 0.00482	182.24
223.35 K, w2 = 0.0169	174.92
223.65 K, w2 = 0.0495	166.27
224.06 K, w2 = 0.0169	176.93
224.22 K, w2 = 0.0051	184.17
224.86 K, w2 = 0.00482	183.19
225.43 K, w2 = 0.0169	177.21
226.12 K, w2 = 0.0169	179.17
226.16 K, w2 = 0.0495	169.5
226.71 K, w2 = 0.00482	184.71
226.73 K, w2 = 0.0051	185.92
227.52 K, w2 = 0.0169	179.5
228.19 K, w2 = 0.0169	181.4
228.65 K, w2 = 0.0495	172.65
228.79 K, w2 = 0.00482	185.77
229.25 K, w2 = 0.0051	187.95
229.6 K, w2 = 0.0169	181.84
229.71 K, w2 = 0.0051	187.47
230.25 K, w2 = 0.0169	183.78
230.87 K, w2 = 0.00482	187.3
231.12 K, w2 = 0.0495	175.4
231.45 K, w2 = 0.0051	188.82
231.69 K, w2 = 0.0169	184.4
231.75 K, w2 = 0.0051	189.69
232.32 K, w2 = 0.0169	185.93
232.95 K, w2 = 0.00482	188.74
233 K, w2 = 0.0051	190.22
233.57 K, w2 = 0.0495	178.39
233.77 K, w2 = 0.0169	186.45
234.38 K, w2 = 0.0169	187.94
234.56 K, w2 = 0.0051	191.21
235.03 K, w2 = 0.00482	190.17
235.85 K, w2 = 0.0169	188.93
236.01 K, w2 = 0.0495	181.58
236.12 K, w2 = 0.0051	192.22
236.45 K, w2 = 0.0169	189.99
237.1 K, w2 = 0.00482	191.7
237.67 K, w2 = 0.0051	193.48
237.94 K, w2 = 0.0169	190.98
238.43 K, w2 = 0.0495	184.7
238.52 K, w2 = 0.0169	191.98
239.18 K, w2 = 0.00482	193.21
239.22 K, w2 = 0.0051	194.65
240.02 K, w2 = 0.0169	193.19
240.19 K, w2 = 0.00482	193.43
240.58 K, w2 = 0.0169	194.1
240.74 K, w2 = 0.0051	195.27
240.77 K, w2 = 0.0051	195.7
240.84 K, w2 = 0.0495	187.48
241.25 K, w2 = 0.00482	195.08
241.57 K, w2 = 0.00482	194.88
242.11 K, w2 = 0.0169	195.39
242.23 K, w2 = 0.0051	196.6
242.33 K, w2 = 0.0051	196.86
242.65 K, w2 = 0.0169	196.25
243.11 K, w2 = 0.00482	195.57
243.23 K, w2 = 0.0495	190.7
243.33 K, w2 = 0.00482	196.58
243.57 K, w2 = 0.0051	197.62
243.88 K, w2 = 0.0051	198.03
244.2 K, w2 = 0.0169	197.53
244.66 K, w2 = 0.00482	197.15
244.72 K, w2 = 0.0169	198.26
244.91 K, w2 = 0.0051	198.42
245.41 K, w2 = 0.00482	198.24
245.43 K, w2 = 0.0051	199.16
245.6 K, w2 = 0.0495	193.88
246.12 K, w2 = 0.00482	197.87
246.21 K, w2 = 0.00482	198.68
246.25 K, w2 = 0.0051	199.47
246.28 K, w2 = 0.0169	199.77
246.78 K, w2 = 0.0169	200.42
246.98 K, w2 = 0.0051	200.29
247.48 K, w2 = 0.00482	199.98
247.59 K, w2 = 0.0051	200.49
247.77 K, w2 = 0.00482	200.2
247.97 K, w2 = 0.0495	197.01
248.37 K, w2 = 0.0169	201.97
248.53 K, w2 = 0.0051	201.44
248.85 K, w2 = 0.0169	202.5
248.93 K, w2 = 0.0051	201.61
249.33 K, w2 = 0.00482	201.33
249.56 K, w2 = 0.00482	201.61
250.07 K, w2 = 0.0051	202.63
250.26 K, w2 = 0.0051	202.66
250.31 K, w2 = 0.0495	200.17
250.45 K, w2 = 0.0169	204.14
250.89 K, w2 = 0.00482	202.59
250.91 K, w2 = 0.0169	204.77
251.6 K, w2 = 0.0051	203.88
251.64 K, w2 = 0.00482	203.37
252.15 K, w2 = 0.0051	204.56
252.45 K, w2 = 0.00482	203.62
252.53 K, w2 = 0.0169	206.36
252.64 K, w2 = 0.0495	203.4
252.93 K, w2 = 0.0051	205.05
252.97 K, w2 = 0.0169	206.96
253.72 K, w2 = 0.00482	205.38
253.96 K, w2 = 0.00482	204.5
254 K, w2 = 0.00482	205.09
254.27 K, w2 = 0.0051	206.08
254.62 K, w2 = 0.0169	208.6
254.74 K, w2 = 0.0051	206.57
254.95 K, w2 = 0.0495	206.71
255.04 K, w2 = 0.0169	209.12
255.56 K, w2 = 0.00482	206.28
255.6 K, w2 = 0.0051	207.19
255.8 K, w2 = 0.00482	206.96
255.99 K, w2 = 0.00482	206.25
256.7 K, w2 = 0.0169	211
256.94 K, w2 = 0.0051	208.23

101 kPa, Liquid
Settings	molar heat capacity at constant pressure [J/K/mol]
220.21 K, w2 = 0.0495	192.42
221.78 K, w2 = 0.00482	273.75
222.3 K, w2 = 0.0495	192.93
223.87 K, w2 = 0.00482	274.35
224.39 K, w2 = 0.0495	193.35
225.97 K, w2 = 0.00482	274.97
226.48 K, w2 = 0.0495	193.78
228.05 K, w2 = 0.00482	275.41
228.57 K, w2 = 0.0495	194.3
230.14 K, w2 = 0.00482	275.97
230.66 K, w2 = 0.0495	194.89
232.23 K, w2 = 0.00482	276.47
232.75 K, w2 = 0.0495	195.6
234.32 K, w2 = 0.00482	276.93
236.41 K, w2 = 0.00482	277.36
238.51 K, w2 = 0.00482	278.01
240.59 K, w2 = 0.00482	278.63
242.68 K, w2 = 0.00482	279.3
244.77 K, w2 = 0.00482	280.02
246.87 K, w2 = 0.00482	280.54
248.96 K, w2 = 0.00482	281.17
256.19 K, w2 = 0.0495	201.27
